Measured values taken from publication PMC11201590, “Enhancing Selective Antimicrobial and Antibiofilm Activities of Melittin through 6-Aminohexanoic Acid Substitution” (Biomolecules, 2024).
Values after ≈ are worked out from the molar mass of the structure shown. Read-outs that look alike come from different tables or passages of the source.

What was measured:
MDRPA = format: cell-based, Pseudomonas aeruginosa
Method: (§1) We assessed the antibiofilm activity of the peptides by determining their minimum biofilm eradication concentration (MBEC) and minimum biofilm inhibition concentration (MBIC) against drug-resistant bacteria, including MDRPA and MRSA, as previously described. A 96-well plate containing a subculture of 1 × 10^6 CFU/200 μL of bacteria was incubated overnight at 37 °C with or without peptides to test for biofilm inhibition and eradication. The untreated culture served as the negative control, and LL-37 was used as the control peptide.

MRSA = format: cell-based, Staphylococcus aureus
Method: as §1

[1] = system: S. epidermidis (KCTC 1917); format: cell-based, Staphylococcus epidermidis; details: CLSI broth dilution, MHB, 37 °C, 18 to 24 h
Method: (§2) Peptides were assessed for their antibacterial activity against four Gram-positive and four Gram-negative bacteria, including drug-resistant strains, in accordance with Clinical and Laboratory Standards Institute (CLSI) guidelines. The minimum inhibitory concentration (MIC) was determined using a microtiter broth dilution method. All bacterial strains were incubated overnight at 37 °C. Cultured bacteria were then diluted 10-fold in Muller–Hinton Broth (MHB) medium (Difco, Detroit, MI, USA) and incubated for 3 h to reach mid-log phase. Following the establishment of mid-log phase cultures, bacteria were inoculated into sterile 96-well plates containing serially diluted peptides. The MIC was defined as the lowest concentration of peptides that prevented observable turbidity after incubation of the plates at 37 °C for 18 to 24 h.

[2] = system: RAW 264.7 macrophage cells; assay: Cytotoxicity, MTT assay; format: cell-based, mouse; details: 4 µM peptide, RAW 264.7, 48 h, triplicate
Method: We conducted the MTT assay (3-(4,5-dimethylthiazol-2-yl)-2,5-diphenyltetrazolium bromide) dye reduction experiment against RAW 264.7 macrophage cells to evaluate the cytotoxicity of the peptides, following previously published methods. RAW 264.7 cells were cultured for 24 h in the presence of 5% CO2 at 37 °C after seeding them in 96-well plates (2 × 10^4 cells/well). Subsequently, the peptides were treated at increasing concentrations and allowed to interact with the cells for 48 h. Following the incubation period, 20 μL of MTT solution (5 mg/mL in PBS) was added to each well, and the plate was further incubated at 37 °C for 4 h. The absorbance was then measured at 550 nm using a microplate ELISA reader after dissolving the formazan crystals in dimethyl sulfoxide (DMSO). Treatment with 0.1% Triton X-100 served as a positive control for 100% cytotoxicity. Each experiment was performed in triplicate.

[3] = system: four Gram-positive and four Gram-negative bacteria; format: cell-based; details: over the eight strains of Table 2
Method: as §2

S. aureus = assay: SYTOX green uptake assay; format: cell-based, Staphylococcus aureus; details: negative control
Method: The SYTOX green experiment was utilized to assess the impact of peptides on bacterial membrane permeabilization. S. aureus cells in the mid-log phase (OD600 = 0.5) were washed three times in a buffer containing 20 mM glucose and 5 mM HEPES (pH 7.4). Subsequently, the bacterial cell suspensions were diluted in a buffer consisting of 5 mM HEPES, 100 mM KCl, and 20 mM glucose, at pH 7.4, to a concentration of 1 × 10^6 CFU/mL. After incubating for fifteen minutes in complete darkness, 0.5 μM SYTOX green was added to the bacterial suspensions. The Shimadzu fluorescence spectrophotometer RF-5300PC (Shimadzu Scientific Instruments, Kyoto, Japan) was employed to monitor SYTOX green fluorescence following the addition of peptides at a concentration of 2 × MIC. In the Shimadzu fluorescence spectrophotometer, the excitation and emission wavelengths were set at 485 nm and 520 nm, respectively.

E. coli (KCTC 1682) = assay: Outer membrane permeability (NPN uptake); format: cell-based, Escherichia coli; details: varying peptide concentrations; NPN fluorescence
Method: The fluorescent probe NPN (1-N-phenylnaphthylamine) was utilized to measure the outer membrane permeability of Gram-negative E. coli. Mid-log phase E. coli cells were diluted to an OD600 of 0.05 after being washed three times in a buffer containing 5 mM HEPES, 20 mM glucose, and 5 mM KCN at pH 7.4. A 1 mM stock solution of NPN was prepared by dissolving NPN in acetone. To achieve a final concentration of 10 µM, 30 μL of the stock solution was added to the bacterial suspension. […] Fluorescence was then measured over time after the peptides were added, with the concentration increasing until it reached a steady state. ONPG (o-nitrophenyl-β-[…]), a […] substrate used for cytoplasmic membrane β-galactosidase enzyme, was employed to assess the release of β-galactosidase from E. coli ML-35, aiming to determine the inner membrane permeability of peptides. A 1.5 mM solution of ONPG was added to a sample buffer consisting of 10 mM sodium phosphate and 100 mM NaCl at pH 7.4, which was used to suspend mid-log phase E. coli ML-35 bacteria to an OD600 of 0.5. […] The fluorescence of ONPG increases when it is hydrolyzed to form o-nitrophenol. The permeability of the inner membrane of E. coli ML-35 bacteria was assessed by the influx of ONPG, a substance that was then broken down into o-nitrophenol, forming a yellow product, by the presence of β-galactosidase in the cytoplasm.

[4] = 8 to 16 µM, sentence does not tell MRSA and MDRPA apart

CC[C@H](C)[C@H](NC(=O)[C@H](CCCCN)NC(=O)[C@H](CCC(=O)O)NC(=O)[C@H](CCCCN)NC(=O)[C@H](CO)NC(=O)[C@H](CCCCN)NC(=O)[C@H](CCCNC(=N)N)NC(=O)[C@H](Cc1ccccc1)NC(=O)[C@H](Cc1ccccc1)NC(=O)[C@H](CC(=O)O)NC(=O)CNC(=O)[C@H](CC(C)C)NC(=O)[C@@H](N)CC(C)C)C(=O)NCC(=O)N[C@@H](CCCCN)C(=O)N[C@@H](CCC(=O)O)C(=O)N[C@@H](Cc1ccccc1)C(=O)N[C@@H](CCCCN)C(=O)N[C@@H](CCCNC(=N)N)C(=O)N[C@H](C(=O)N[C@H](C(=O)N[C@@H](CCC(N)=O)C(=O)N[C@@H](CCCNC(=N)N)C(=O)N[C@H](C(=O)N[C@@H](CCCCN)C(=O)N[C@@H](CC(=O)O)C(=O)N[C@@H](Cc1ccccc1)C(=O)N[C@@H](CC(C)C)C(=O)N[C@@H](CCCNC(=N)N)C(=O)N[C@@H](CC(N)=O)C(=O)N[C@@H](CC(C)C)C(=O)N[C@H](C(=O)N1CCC[C@H]1C(=O)N[C@@H](CCCNC(=N)N)C(=O)N[C@H](C(=O)N[C@@H](CCC(=O)O)C(=O)N[C@@H](CO)C(=O)O)[C@@H](C)O)C(C)C)[C@@H](C)CC)C(C)C)[C@@H](C)CC [LL-37]
inhibition of biofilm formation (MDRPA; [4]): approximately 50% | inhibition of biofilm formation (MRSA; [4]): approximately 50%

CC[C@H](C)[C@H](NC(=O)CN)C(=O)NCC(=O)N[C@@H](C)C(=O)N[C@H](C(=O)N[C@@H](CC(C)C)C(=O)N[C@@H](CCCCN)C(=O)N[C@H](C(=O)N[C@@H](CC(C)C)C(=O)N[C@H](C(=O)N[C@H](C(=O)NCC(=O)N[C@@H](CC(C)C)C(=O)N1CCC[C@H]1C(=O)N[C@@H](C)C(=O)N[C@@H](CC(C)C)C(=O)N[C@H](C(=O)N[C@@H](CO)C(=O)N[C@@H](Cc1c[nH]c2ccccc12)C(=O)N[C@H](C(=O)N[C@@H](CCCCN)C(=O)N[C@@H](CCCNC(=N)N)C(=O)N[C@@H](CCCCN)C(=O)N[C@@H](CCCNC(=N)N)C(=O)N[C@@H](CCC(N)=O)C(=O)N[C@@H](CCC(N)=O)C(N)=O)[C@@H](C)CC)[C@@H](C)CC)[C@@H](C)O)[C@@H](C)O)C(C)C)C(C)C [Melittin]
inhibition of biofilm formation (MDRPA; MDRPA, 8 µM peptide): ~90% | MIC [1]: 8 µM (≈ 22.8 µg/mL) | cell survival rate [2]: less than 10% | inhibition of biofilm formation (MRSA; MRSA, 4 µM peptide): ~90% | GM, geometric mean of the MIC [3]: 10.5 µM

Buforin-2
effect on SYTOX green fluorescence intensity (S. aureus): did not affect fluorescence intensity | outer membrane permeability (E. coli (KCTC 1682)): No appreciable outer membrane permeability
